Results on six molecules are retold here after paper PMC2834293 (Journal of medicinal chemistry, 2010).

Series [1] has as its target recombinant soluble human furin (Homo sapiens, UniProt P09958). Put plainly: Enzyme kinetics with furin. In kind it is biochemical.
A short description of series [2]: Stability of stock solution in water. Format: physicochemical. As to conditions: room temperature, two weeks.
In series [3] the test system is fowl plague virus (FPV, Rostock strain). As to conditions: 25 μM inhibitor, up to 72 h.
The test system of series [4] is fowl plague virus hemagglutinin cleavage in MDCK cells. Format: cell-based, influenza virus A/FPV/Rostock/34 (H7N1). As to conditions: FPV-infected MDCK cells; data not shown.
The target in the next series is furin. As to conditions: read-out: Ki furin; cited from earlier work.

Chain of recombinant soluble human furin (P09958 108-715 limits assumed): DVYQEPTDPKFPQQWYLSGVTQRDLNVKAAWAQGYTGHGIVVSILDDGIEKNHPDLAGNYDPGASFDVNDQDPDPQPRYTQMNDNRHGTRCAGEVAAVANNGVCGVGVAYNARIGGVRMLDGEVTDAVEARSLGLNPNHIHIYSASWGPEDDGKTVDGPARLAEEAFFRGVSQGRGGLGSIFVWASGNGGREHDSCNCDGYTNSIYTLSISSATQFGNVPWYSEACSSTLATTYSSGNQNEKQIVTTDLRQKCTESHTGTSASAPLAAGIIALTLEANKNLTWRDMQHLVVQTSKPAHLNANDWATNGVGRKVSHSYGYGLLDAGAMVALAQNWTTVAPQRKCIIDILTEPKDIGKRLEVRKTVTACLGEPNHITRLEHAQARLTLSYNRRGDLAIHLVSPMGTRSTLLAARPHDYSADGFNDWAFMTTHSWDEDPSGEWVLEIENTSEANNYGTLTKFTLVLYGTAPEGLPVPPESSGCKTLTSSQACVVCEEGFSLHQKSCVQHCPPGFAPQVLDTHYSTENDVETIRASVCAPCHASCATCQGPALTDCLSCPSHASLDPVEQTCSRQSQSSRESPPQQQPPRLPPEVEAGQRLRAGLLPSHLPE

The Ki is a measure of affinity in units of concentration, obtained from inhibition or displacement. Turning to `N=C(N)c1ccccc1` [benzamidine, reference compound], the Ki in series [1] came out at 750 µM.

Take `N=C(N)c1ccc(CN)cc1` [compound 1, 4-amidinobenzylamine]: the Ki in series [1] is 1200 µM.

Regarding `CC(C)[C@H](NC(=O)[C@H](CCCNC(=N)N)NC(=O)Cc1ccccc1)C(=O)N[C@@H](CCCNC(=N)N)C(=O)NCc1ccc(C(=N)N)cc1` [compound 15, Phac-Arg-Val-Arg-4-(amidomethyl)benzamidine], in series [2], the “change in HPLC elution profile on storage” value is “could not detect any change”. Moreover, in series [3] (MDCK cells), the “viability of the cells in the presence of inhibitor” value is on record as “not noticeably influenced”. Besides, in series [3] (MOI 10^-5, MDCK cells), the “delay of virus release versus untreated infected cultures” value is reported as “about 24 h”. Consider `CCCCCCCCCC(=O)N[C@@H](CCCNC(=N)N)C(=O)N[C@H](C(=O)N[C@@H](CCCNC(=N)N)C(=O)NCc1ccc(C(=N)N)cc1)C(C)C` [compound 16], for which the “activity in the cellular HA cleavage assay compared with inhibitor 15” value in series [4] is listed as “Very similar results”. On to `CC(=O)N[C@@H](CCCNC(=N)N)C(=O)N[C@H](C(=O)N[C@@H](CCCNC(=N)N)C(=O)NCc1ccc(C(=N)N)cc1)C(C)C` [compound 17], for which the “activity in the cellular HA cleavage assay compared with inhibitor 15” value in series [4] is “reduced activity”. For nona-D-arginine, on furin, the Ki was 0.0013 µM.
